Reference: patent US20220193202A1, “PARATHYROID HORMONE DERIVATIVE IN DIMERIC FORM OF PARATHYROID HORMONE FRAGMENT AND PHARMACEUTICAL COMPOSITION FOR PREVENTION OR TREATMENT OF BONE DISEASES COMPRISING SAME” (GACHON UNIVERSITY OF INDUSTRY-ACADEMIC COOPERATION …, priority 2019, published 2022)

How the values were obtained:
Format in all cases: in vivo, C57BL6 male mice
[1] = system: trabecular bones of the femurs; assay: micro-CT of femur of opposite limb (trabecular bone formation); conditions: 100 μg/kg subcutaneously daily Day 1 to Day 13, Day 14, compared with control, PTH(1-34) and monomeric [Cys25]PTH(1-34) groups
Protocol: (§1) Five 10-week-old C57BL6 male mice were prepared for each group, and fracture model surgery was performed in the following manner (see FIG. 3). In particular, 9 days before (-D9) and 6 days before (-D6) prior to fracture model surgery (DO) in mice of each group, infrared fluorescent dyes (IR Dyes, Infra-Red dyes) were administered through a tail vein of the mice. Then, the mice were general anesthetized using isoflurane containing oxygen (O2) for fracture model surgery, and a left hind limb was shaved and sterilized for surgery. An incision of about 15 mm was made in the left hind limb in the longitudinal direction, and the tibia was exposed by obtuse-angled resection of the muscle. Then, transverse osteotomy was performed using disc-shaped dental steel bars at the midpoint of the tibia. After repositioning the fracture site, the entire length of a bone marrow lumen was made internally stabilized. After washing it with saline, the skin was sutured with nylon sutures. In particular, the fracture animal models prepared in Example 2 was divided into a control group, PTH(1-34), monomeric [[…]]PTH(1-34), and dimeric [[…]]PTH(1-34) administration groups (n=5 animals per group). […] In addition, the femurs of an opposite limb of the animal models were collected and analyzed by micro-CT equipment to evaluate the degree of bone formation in the trabecular bones of the femurs.

fracture animal model [2] = assay: 3D-micro CT of tibia including fracture site (callus formation); conditions: 100 μg/kg subcutaneously daily Day 1 to Day 13; tibia collected Day 14
Protocol: as §1, with “The collected shin bones” for “In addition, the femurs of an opposite limb of the animal models”, “imaged” for “collected”, “using 3D-micro CT (Microfocus X-ray CT system SMX-90CT, Shimadzu, Japan) equipment.” for “by micro-CT equipment to evaluate the degree of bone formation in the trabecular bones of the femurs.”

fracture animal model [3] = assay: IVIS imaging of fracture site in fracture animal model; conditions: 100 μg/kg subcutaneously daily Day 1 to Day 13 after fracture surgery; imaged Day 4, 7, 11, 14
Protocol: Five 10-week-old C57BL6 male mice were prepared for each group, and fracture model surgery was performed in the following manner (see FIG. 3). In particular, 9 days before (-D9) and 6 days before (-D6) prior to fracture model surgery (DO) in mice of each group, infrared fluorescent dyes (IR Dyes, Infra-Red dyes) were administered through a tail vein of the mice. Then, the mice were general anesthetized using isoflurane containing oxygen (O2) for fracture model surgery, and a left hind limb was shaved and sterilized for surgery. An incision of about 15 mm was made in the left hind limb in the longitudinal direction, and the tibia was exposed by obtuse-angled resection of the muscle. Then, transverse osteotomy was performed using disc-shaped dental steel bars at the midpoint of the tibia. After repositioning the fracture site, the entire length of a bone marrow lumen was made internally stabilized. […] On Day 4, Day 7, Day 11, and Day 14 after the surgery, fracture sites of mice per each group were photographed and analyzed using IVIS Lumina XR (Caliper Life Sciences, USA) equipment and Living Image software. The results as shown in FIG. 4 confirmed that when the dimeric [[…]]PTH(1-34) was administered, an intensity of fluorescence was increased at the site where the fracture was healing. […] Therefore, intensifying of the fluorescence means that bone formation increased.

dimeric [Cys25]PTH(1-34): Dimeric form of parathyroid hormone fragment PTH(1-34) with Arg25 substituted by Cys (SEQ ID NO: 1), disulfide bond between cysteines
bone formation in the trabecular bones of the femurs (micro-CT, FIG. 8) [1]: greatest increase | callus formation (3D-micro CT, FIG. 6) (fracture animal model [2]): promoted | callus volume (FIG. 7) (fracture animal model [2]): notably increased | bone formation, average of photon flux (FIG. 5) (fracture animal model [3]): significantly increased | intensity of fluorescence at the site where the fracture was healing (IVIS imaging, FIG. 4) (fracture animal model [3]): increased
